Laboratory results as given in ChEMBL document CHEMBL1128397, “Novel 2,4-diamino-5-substituted-pyrrolo[2,3-d]pyrimidines as classical and nonclassical antifolate inhibitors of dihydrofolate reductases” (J Med Chem, 1995).

T1: Dihydrofolate reductase (Pneumocystis carinii, UniProt P16184)
T1 sequence (P16184 whole entry): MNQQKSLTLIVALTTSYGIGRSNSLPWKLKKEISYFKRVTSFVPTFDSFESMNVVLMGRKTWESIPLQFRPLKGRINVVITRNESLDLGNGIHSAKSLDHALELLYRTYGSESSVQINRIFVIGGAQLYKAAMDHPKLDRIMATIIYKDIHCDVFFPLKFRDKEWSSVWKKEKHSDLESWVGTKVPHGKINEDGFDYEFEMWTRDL

T2: Bifunctional dihydrofolate reductase-thymidylate synthase (Toxoplasma gondii, UniProt Q07422)
T2 sequence (Q07422 whole entry): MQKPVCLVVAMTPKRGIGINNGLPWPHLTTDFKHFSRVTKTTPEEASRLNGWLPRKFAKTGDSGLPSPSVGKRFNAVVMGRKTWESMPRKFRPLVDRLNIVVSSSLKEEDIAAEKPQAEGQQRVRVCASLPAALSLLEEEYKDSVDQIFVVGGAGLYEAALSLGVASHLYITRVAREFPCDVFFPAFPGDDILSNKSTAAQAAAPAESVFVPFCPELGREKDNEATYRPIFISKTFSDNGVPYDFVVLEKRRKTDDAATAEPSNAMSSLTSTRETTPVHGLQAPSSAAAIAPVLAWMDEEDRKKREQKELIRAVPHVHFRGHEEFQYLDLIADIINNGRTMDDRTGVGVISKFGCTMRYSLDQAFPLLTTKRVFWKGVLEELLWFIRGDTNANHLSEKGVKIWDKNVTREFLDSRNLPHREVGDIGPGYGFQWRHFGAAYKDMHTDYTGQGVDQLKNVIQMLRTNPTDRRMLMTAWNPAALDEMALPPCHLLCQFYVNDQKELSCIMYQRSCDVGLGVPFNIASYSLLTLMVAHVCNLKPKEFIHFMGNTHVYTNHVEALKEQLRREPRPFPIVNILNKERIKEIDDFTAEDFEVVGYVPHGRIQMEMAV

T3: Dihydrofolate reductase (Rattus norvegicus, UniProt Q920D2)
T3 sequence (Q920D2 whole entry): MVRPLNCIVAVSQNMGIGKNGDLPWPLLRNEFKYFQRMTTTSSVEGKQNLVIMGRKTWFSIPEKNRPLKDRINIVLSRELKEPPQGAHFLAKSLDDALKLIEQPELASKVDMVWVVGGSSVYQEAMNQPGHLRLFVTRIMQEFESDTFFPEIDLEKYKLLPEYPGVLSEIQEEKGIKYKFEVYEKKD

B1: Folylpolyglutamate synthase, mitochondrial (Homo sapiens), Q05932 (protein)
chain: MSRARSHLRAALFLAAASARGITTQVAARRGLSAWPVPQEPSMEYQDAVRMLNTLQTNAGYLEQVKRQRGDPQTQLEAMELYLARSGLQVEDLDRLNIIHVTGTKGKGSTCAFTECILRSYGLKTGFFSSPHLVQVRERIRINGQPISPELFTKYFWRLYHRLEETKDGSCVSMPPYFRFLTLMAFHVFLQEKVDLAVVEVGIGGAYDCTNIIRKPVVCGVSSLGIDHTSLLGDTVEKIAWQKGGIFKQGVPAFTVLQPEGPLAVLRDRAQQISCPLYLCPMLEALEEGGPPLTLGLEGEHQRSNAALALQLAHCWLQRQDRHGAGEPKASRPGLLWQLPLAPVFQPTSHMRLGLRNTEWPGRTQVLRRGPLTWYLDGAHTASSAQACVRWFRQALQGRERPSGGPEVRVLLFNATGDRDPAALLKLLQPCQFDYAVFCPNLTEVSSTGNADQQNFTVTLDQVLLRCLEHQQHWNHLDEEQASPDLWSAPSPEPGGSASLLLAPHPPHTCSASSLVFSCISHALQWISQGRDPIFQPPSPPKGLLTHPVAHSGASILREAAAIHVLVTGSLHLVGGVLKLLEPALSQ

Assays:
Dihydrofolate reductase [1] = target: T1, Dihydrofolate reductase
Description: Inhibition of Pneumocystis carinii (pc) Dihydrofolate reductase

[2] = target: T2, Bifunctional dihydrofolate reductase-thymidylate synthase
Description: Inhibition of Toxoplasma gondii (tc) Dihydrofolate reductase

[3] = Ratio of the IC50 against rat liver DHFR and Toxoplasma gondii DHFR (IC50rl/IC50tg)
[4] = Ratio of IC50 against rat liver DHFR and Pneumocystis carinii DHFR (IC50rl/IC50pc)
Dihydrofolate reductase [5] = target: T3, Dihydrofolate reductase
Description: Inhibition of rat liver Dihydrofolate reductase

[6] = Relative Vmax of compound was measured.; type: ADME
FaDu = assay: Growth inhibition of human squamous carcinoma cell lines following continuous (120 hours) exposure to MTX and compound FaDu cell line; type: functional, cell-based
A253 cell line = assay: Growth inhibition of human squamous carcinoma cell lines following continuous (120 hours) exposure to MTX and compound A253 cell line; type: functional, cell-based; conditions: A253, 120 h
CCRF-CEM [7] = assay: Compound was evaluated for the growth inhibition of parental CCRF-CEM; type: functional, cell-based; conditions: Homo sapiens
CCRF-CEM [8] = assay: Compound was evaluated for the growth inhibition of R2, a CCRF-CEM subline resistant to MTX as a result of deffective uptake.; type: functional, cell-based; conditions: Homo sapiens
CCRF-CEM [9] = assay: Compound was evaluated for the growth inhibition of R30dm, a CCRF-CEM subline resistant to intermittent MTX exposure solely as a result of decreased polyglutamylation.; type: functional, cell-based; conditions: Homo sapiens
[10] = target: Folylpolyglutamate synthase, mitochondrial (Homo sapiens) (UniProt Q05932); assay: Inhibitory activity of compound was measured for CCRF-CEM human leukemia cell Folyl-polyglutamate synthase
[11] = compound: Nc1nc(N)c2nc(CNc3ccc(C(=O)N[C@@H](CCC(=O)O)C(=O)O)cc3)cnc2n1; assay: Inhibitory activity of compound was measured for CCRF-CEM human leukemia cell Folyl-polyglutamate synthase

Molecule | IC50 (Dihydrofolate reductase [1]) | IC50 [2] | Selectivity ratio [3] | Selectivity ratio [4] | IC50 (Dihydrofolate reductase [5]) | other results
CCOc1ccc(OCC)c(NCc2c[nH]c3nc(N)nc(N)c23)c1 | 21000 nM |  |  |  |  | 
COc1cc(NCc2c[nH]c3nc(N)nc(N)c23)cc(OC)c1OC | > 23000 nM | 8100 nM | 7 | < 2.4 | 56300 nM | 
Nc1nc(N)c2c(CNc3ccccc3)c[nH]c2n1 |  |  | > 65 | < 1 |  | 
COc1ccc(OC)c(NCc2c[nH]c3nc(N)nc(N)c23)c1 |  | 1700 nM | 92 | 3.4 | 156000 nM | 
Nc1nc(N)c2c(CNc3cccc4ccccc34)c[nH]c2n1 | 307000 nM | 1100 nM | 53.9 | 0.2 | 59300 nM | 
Nc1nc(N)c2nc(CNc3ccc(C(=O)N[C@@H](CCC(=O)O)C(=O)O)cc3)cnc2n1 [AMINOPTERIN] |  |  |  |  |  | Vmax [6]: 1
COc1ccc(NCc2c[nH]c3nc(N)nc(N)c23)cc1 | 279000 nM | 6000 nM | 10.5 | 0.23 | 63000 nM | 
CN(Cc1cnc2nc(N)nc(N)c2n1)c1ccc(C(=O)N[C@@H](CCC(=O)O)C(=O)O)cc1 [METHOTREXATE] |  |  |  |  |  | EC50 (FaDu): 31 nM; EC50 (A253 cell line): 17 nM
Nc1nc(N)c2c(CNc3ccc(C(=O)NC(CCC(=O)O)C(=O)O)cc3)c[nH]c2n1 (stereo not given) | 38 nM | 210 nM |  |  |  | EC50 (CCRF-CEM [7]): 12.8 nM; EC50 (FaDu): 22 nM; Vmax [6]: 0.72; EC50 (CCRF-CEM [8]): 1650 nM; EC50 (CCRF-CEM [9]): 36 nM; EC50 (A253 cell line): 46 nM
B1 |  |  |  |  |  | Km [10]: < 1 µM; Km [11]: 4.3 µM
